Values joined by “and” are separate entries in the source; they are usually repeats but may differ in a detail not shown here. Equal values may be shown once. Read-outs that look alike come from different tables or passages of the source.
How the values were obtained:
Assay type in all cases: cell-based
[1] = system: 100 A. baumannii strains (50 MDR, 50 non-MDR); assay: MIC broth microdilution at IHMA Europe, panel of 100 strains; details: for MIC / MIC50 / MIC90: Acinetobacter baumannii
S. pneumoniae ATCC 49619 = assay: IHMA QC MIC
Text: (§1) Supplement jm2c01905_si_004.xlsx, sheet "QC" | column: MIC [µg/mL]

H. influenzae ATCC 49247 = assay: IHMA QC MIC; details: Haemophilus influenzae
Text: as §1

E. faecalis ATCC 29212 = assay: IHMA QC MIC
Text: as §1

[2] = system: N. gonorrhoeae ATCC 49226; assay: IHMA QC MIC; details: Neisseria gonorrhoeae, ATCC49226
Text: as §1

H. influenzae ATCC 49766 = assay: IHMA QC MIC
Text: as §1

P. aeruginosa ATCC 27853 = assay: IHMA QC MIC; details: Pseudomonas aeruginosa
E. coli ATCC 25922 = assay: IHMA QC MIC
E. faecium (n = 13) = assay: MIC broth microdilution at IHMA Europe; details: for MIC: Enterococcus faecium, read-out: MIC

Cc1[nH]c(C(=O)Nc2nc3c(N4CCOCC4)cc(C(=O)O)cc3s2)c(Cl)c1Cl [7a, 2-(3,4-Dichloro-5-methyl-1H-pyrrole-2-carboxamido)-4-morpholinobenzo[d]thiazole-6-carboxylic Acid]
0.12 µg/mL: MIC (E. faecium (n = 13); E. faecium IHMA N° 1893846) | MIC (E. faecium (n = 13); E. faecium IHMA N° 1893942) | MIC (E. faecium (n = 13); E. faecium IHMA N° 1894055) | MIC (E. faecium (n = 13); E. faecium IHMA N° 1897027) | MIC (E. faecium (n = 13); E. faecium IHMA N° 2075051)
32 µg/mL: MIC ([1]; A. baumannii IHMA 1830924, United Kingdom 2018, Non-MDR) | MIC ([1]; A. baumannii IHMA 2224303, Panama 2020, Non-MDR) | MIC ([1]; read-out: MAX (maximum MIC), non-MDR n = 50) | MIC ([1]; read-out: MAX (maximum MIC; all strains inhibited), all isolates n = 100)
≤ 0.03 µg/mL: MIC [2]
61.5% and 100.0%: Cumulative % at MIC (E. faecium (n = 13))
8 and 5: No. of isolates at MIC (E. faecium (n = 13))
1 µg/mL: MIC ([1]; A. baumannii IHMA 1795669, Tunisia 2018, Non-MDR) | MIC ([1]; read-out: MIN (minimum MIC), all isolates n = 100) | MIC ([1]; read-out: MIN (minimum MIC), non-MDR n = 50)
64 µg/mL: MIC (P. aeruginosa ATCC 27853; ATCC27853, QC strain P. aeruginosa ATCC 27853, test date 2021-11-11)
8 µg/mL: MIC ([1]; A. baumannii IHMA 1814276, Lebanon 2018, MDR) | MIC ([1]; A. baumannii IHMA 1815198, Kuwait 2018, MDR) | MIC ([1]; A. baumannii IHMA 1821468, South Africa 2018, Non-MDR) | MIC ([1]; A. baumannii IHMA 1829500, Georgia 2018, Non-MDR) | MIC ([1]; A. baumannii IHMA 1849829, Kuwait 2018, Non-MDR) | MIC ([1]; A. baumannii IHMA 1863631, France 2018, Non-MDR) | MIC ([1]; A. baumannii IHMA 1870054, United States 2018, Non-MDR) | MIC ([1]; A. baumannii IHMA 1884428, Italy 2018, Non-MDR) | MIC ([1]; A. baumannii IHMA 1900538, Turkey 2018, Non-MDR) | MIC ([1]; A. baumannii IHMA 1957343, Portugal 2019, Non-MDR) | MIC ([1]; A. baumannii IHMA 1963732, Turkey 2019, MDR) | MIC ([1]; A. baumannii IHMA 1977077, Kuwait 2019, Non-MDR) | MIC ([1]; A. baumannii IHMA 1983151, Greece 2019, MDR) | MIC ([1]; A. baumannii IHMA 1984665, Lithuania 2019, MDR) | MIC ([1]; A. baumannii IHMA 1986678, Turkey 2019, Non-MDR) | MIC ([1]; A. baumannii IHMA 1986738, Turkey 2019, MDR) | MIC ([1]; A. baumannii IHMA 1995161, Czech Republic 2019, Non-MDR) | MIC ([1]; A. baumannii IHMA 1997936, Morocco 2019, Non-MDR) | MIC ([1]; A. baumannii IHMA 2003279, Turkey 2019, MDR) | MIC ([1]; A. baumannii IHMA 2019315, Romania 2019, Non-MDR) | MIC ([1]; A. baumannii IHMA 2020360, Croatia 2019, MDR) | MIC ([1]; A. baumannii IHMA 2031524, Greece 2019, MDR) | MIC ([1]; A. baumannii IHMA 2035089, Serbia 2019, MDR) | MIC ([1]; A. baumannii IHMA 2035134, Serbia 2019, Non-MDR) | MIC ([1]; A. baumannii IHMA 2038976, Hungary 2019, MDR) | MIC ([1]; A. baumannii IHMA 2058329, Slovenia 2019, Non-MDR) | MIC ([1]; A. baumannii IHMA 2099294, United Kingdom 2019, Non-MDR) | MIC ([1]; A. baumannii IHMA 2129256, Qatar 2019, Non-MDR) | MIC ([1]; A. baumannii IHMA 2154584, Israel 2020, MDR) | MIC ([1]; A. baumannii IHMA 2156634, Turkey 2020, MDR) | MIC ([1]; A. baumannii IHMA 2156709, Turkey 2020, MDR) | MIC ([1]; A. baumannii IHMA 2177232, Lithuania 2020, MDR) | MIC ([1]; A. baumannii IHMA 2177489, Lithuania 2020, MDR) | MIC ([1]; A. baumannii IHMA 2180134, Malaysia 2020, Non-MDR) | MIC ([1]; A. baumannii IHMA 2181370, Morocco 2020, MDR) | MIC ([1]; A. baumannii IHMA 2183849, Argentina 2020, Non-MDR) | MIC ([1]; A. baumannii IHMA 2193375, Venezuela 2020, MDR) | MIC ([1]; A. baumannii IHMA 2193607, Venezuela 2020, MDR) | MIC ([1]; A. baumannii IHMA 2195460, Italy 2020, MDR) | MIC ([1]; A. baumannii IHMA 2196914, South Africa 2020, MDR) | MIC ([1]; A. baumannii IHMA 2196959, South Africa 2020, MDR) | MIC ([1]; A. baumannii IHMA 2203763, Spain 2020, MDR) | MIC ([1]; A. baumannii IHMA 2215307, Hong Kong 2020, Non-MDR) | MIC ([1]; A. baumannii IHMA 2216586, Taiwan 2020, MDR) | MIC ([1]; A. baumannii IHMA 2233430, Kazakhstan 2020, MDR) | MIC ([1]; A. baumannii IHMA 2233548, Kazakhstan 2020, Non-MDR) | MIC ([1]; A. baumannii IHMA 2238964, Thailand 2020, MDR) | MIC ([1]; A. baumannii IHMA 2239052, Thailand 2020, Non-MDR) | MIC ([1]; A. baumannii IHMA 2274234, South Africa 2020, MDR) | MIC ([1]; A. baumannii IHMA 2274364, South Africa 2020, MDR) | MIC ([1]; A. baumannii IHMA 2275237, Chile 2020, Non-MDR) | MIC ([1]; A. baumannii IHMA 2316205, United States 2020, MDR) | MIC50 ([1]; MDR n = 50) | MIC90 ([1]; MDR n = 50) | MIC50 ([1]; all isolates n = 100) | MIC50 ([1]; non-MDR n = 50) | MIC (E. coli ATCC 25922; Escherichia coli, ATCC25922) | MIC (E. coli ATCC 25922; Escherichia coli, ATCC25922, read-out: MIC (QC, repeated tests)) | MIC (E. coli ATCC 25922; QC strain E. coli ATCC 25922, test date 2021-11-26)
0.25 µg/mL: MIC (S. pneumoniae ATCC 49619; QC strain S. pneumoniae ATCC 49619, test date 2021-11-26) | MIC (S. pneumoniae ATCC 49619; Streptococcus pneumoniae, ATCC49619) | MIC (H. influenzae ATCC 49247; ATCC49247, QC strain H. influenzae ATCC 49247, test date 2021-11-11) | MIC (H. influenzae ATCC 49766; Haemophilus influenzae, ATCC49766) | MIC (H. influenzae ATCC 49766; QC strain H. influenzae ATCC 49766, test date 2021-11-26)
16 µg/mL: MIC ([1]; A. baumannii IHMA 1769910, Israel 2018, Non-MDR) | MIC ([1]; A. baumannii IHMA 1849819, Kuwait 2018, MDR) | MIC ([1]; A. baumannii IHMA 1857118, Slovenia 2018, Non-MDR) | MIC ([1]; A. baumannii IHMA 2014931, South Africa 2019, Non-MDR) | MIC ([1]; A. baumannii IHMA 2034657, Tunisia 2019, Non-MDR) | MIC ([1]; A. baumannii IHMA 2157614, Australia 2020, Non-MDR) | MIC ([1]; A. baumannii IHMA 2178574, Ukraine 2020, Non-MDR) | MIC ([1]; A. baumannii IHMA 2183729, Argentina 2020, MDR) | MIC ([1]; A. baumannii IHMA 2212575, Hungary 2020, Non-MDR) | MIC ([1]; A. baumannii IHMA 2224017, Panama 2020, MDR) | MIC ([1]; A. baumannii IHMA 2233099, Guatemala 2020, MDR) | MIC ([1]; A. baumannii IHMA 2261047, Belgium 2020, MDR) | MIC ([1]; A. baumannii IHMA 2261633, Canada 2020, Non-MDR) | MIC90 ([1]; all isolates n = 100) | MIC90 ([1]; non-MDR n = 50) | MIC ([1]; read-out: MAX (maximum MIC; all strains inhibited), MDR n = 50) | MAX (maximum MIC; all strains inhibited) ([1]; MDR n = 50) | MIC (P. aeruginosa ATCC 27853; ATCC27853, QC strain P. aeruginosa ATCC 27853, test date 2021-11-26)
≤ 0.12 µg/mL: MIC, all isolates (E. faecium (n = 13); n = 13)
0.06 µg/mL: MIC (H. influenzae ATCC 49247; ATCC49247, QC strain H. influenzae ATCC 49247, test date 2021-11-26) | MIC (E. faecalis ATCC 29212; Enterococcus faecalis, ATCC29212) | MIC (E. faecalis ATCC 29212; QC strain E. faecalis ATCC 29212, test date 2021-11-26) | MIC (E. faecium (n = 13); E. faecium IHMA N° 1764866) | MIC (E. faecium (n = 13); E. faecium IHMA N° 1765436) | MIC (E. faecium (n = 13); E. faecium IHMA N° 1765746) | MIC (E. faecium (n = 13); E. faecium IHMA N° 1893573) | MIC (E. faecium (n = 13); E. faecium IHMA N° 1897101) | MIC (E. faecium (n = 13); E. faecium IHMA N° 1904592) | MIC (E. faecium (n = 13); E. faecium IHMA N° 2077718) | MIC (E. faecium (n = 13); E. faecium IHMA N° 2083787)
